Consider one compound from ChEMBL document CHEMBL6182899, “Shooting an Arrow against Convulsion: Novel Triazole-Grafted Benzenesulfonamide Derivatives as Carbonic Anhydrase II and VII Inhibitors” (J Med Chem, 2025).

The test is filed under the species Mus musculus. Nature of the test: animal or person. To be noted: 24 h.

SMILES strings stand for the structures.

Consider `CCCC(CCC)C(=O)O` [VALPROIC ACID], for which the survival at 100 mg/kg worked out at 80%.
